pEC50, pIC50: −log10 of the molar value. Read-outs that look alike come from different tables or passages of the source.
Tests used:
[1] = system: HCV Con1 subgenomic replicon in Huh-7 cells (NK/luc-ubi-neo); test: HCV replicon assay (luciferase reporter); type: cell-based; conditions: anti-HCV activity, class symbols; read-out: Range of EC50 in HCV replicon assay
Experimental: A human hepatoma cell line (Huh-7) containing replicating HCV Con1 subgenomic replicon with a luciferase reporter gene (luc-ubi-neo) was used to evaluate anti-HCV activity of the compounds. In this assay, the level of luciferase signal correlates directly with the viral RNA replication. The HCV replicon-reporter cell line (NK/luc-ubi-neo) was cultured in DMEM medium supplemented with 10% fetal bovine serum and 0.5 mg/ml Geneticin (G418). Cells were maintained in a subconfluent state to ensure high levels of HCV replicon RNA synthesis.
To evaluate the antiviral activity of compounds, serial dilutions were prepared with concentrations ranging from 0.14 to 300 μM. Diluted compounds were transferred to a 96-well plate followed by the addition of replicon cells (6000 cells per well). Cells were incubated with the compounds for 48 hours after which luciferase activity was measured.

[2] = system: Huh-7 cells
Source text: A Huh-7 cell line carrying a luciferase reporter gene (driven by a HIV LTR promoter) stably integrated into the chromosome was used to analyze the cytotoxic effect of the selected compounds. This cell line (LTR-luc) was maintained in DMEM medium with 10% FBS. Design of the cytotoxicity assay was similar to that of the HCV replicon assay.

[3] = target: T1, HCV replicase complexes (Hepatitis C virus genotype 1b, UniProt Q9WMX2); test: In vitro HCV replicase complex assay; type: biochemical; conditions: crude membrane fraction of I389/NS3-3 replicon cells
T1 construct: viral non-structural proteins (NS3, NS4A, NS4B, NS5A and NS5B); expressed in transfected cells; host or cells: HCV subgenomic replicon cell line (I389/NS3-3)
Experimental: Crude membrane fraction containing the replicase complexes (RC) was isolated from the HCV subgenomic replicon cell line (I389/NS3-3) (Lohmann et al., Science 285:110-113, 1999) through Dounce homogenization and high-speed centrifugation (Lai et al., J. Virol. 73:2295-2300). Standard assay mixtures contained 50 mM HEPES (pH 7.3), 10 mM KCl, 10 mM MgCl2, 20 units of ribonuclease inhibitor, 10 μg/ml actinomycin D, 0.5 mM of ATP, GTP, CTP, 10 μCi of [α-^33P] UTP and 0.5 μl of the membrane fraction in a total volume of 20 μl. To determine the inhibitory effect of compounds on the HCV replicase complexes, pre-incubation of the RC membrane fraction with tested compounds was performed in a reaction mixture at 4° C. for 15 minutes. The reaction was then initiated by the addition of the radiolabeled UTP and cold nucleotides and incubated at 30° C. for 1 hour. Products were extracted with phenol/chloroform, precipitated with ethanol, and separated on a 1% agarose gel. After electrophoresis, the gel was dried prior to autoradiography. Radioactivity incorporated into viral RNA was quantitated by using a Phosphorimager (Amersham Biosciences Corp., Piscataway, N.J.) and was used to determine the IC50 value. A number of the exemplary compounds were potent inhibitors that blocked viral RNA synthesis catalyzed by HCV replicase complexes, with IC50 values in the nM range (Table 2).

[4] = system: parental replicon cells (I389/NS3-3); test: Sensitivity of parental (wild-type) replicon cells, HCV replicon RNA by quantitative RT-PCR; type: cell-based; conditions: Wild-type replicon cell line; for pEC50: Hepatitis C virus, HCV replicon RNA by RT-PCR, 72 hours of treatment; for Fold over wild-type: fold of EC50
Experimental: (§1) A replicon-containing cell line (I389/NS3-3) was used to select the resistant replicons against Compound 1 (Lohmann et al., Science 285:110-113, 1999). Replicon cells were plated in a 100 mm dish, under a subconfluent condition (approximately at 40% confluency). After 24 hours, Compound 1 was added to the cells with the final concentration of 2 μM in the medium containing 1 mg of G418 per ml. After 3 weeks, colonies of cells resistant to Compound 1 were isolated and expanded. Three independent cell lines (w1, w3 and w4) with growth rate similar to that of the parental replicon cells were selected to test for their sensitivity to Compound 1.
(§2) To confirm that viral RNAs in the selected cell lines were resistant to Compound 1, the cells were treated with the compound with concentrations from 0.05 to 5 μM. After 72-hours of treatment, cells were lysed and the cell lysates were diluted with RNase-free water, from which 5 μl was used to quantify the HCV replicon RNA by using real-time quantitative reverse transcriptase (RT) PCR assay (Cheney et al., Virology 297:298-306, 2002). Same quantitative RT-PCR protocol was used to determine the level of the cellular glyceraldhehyde-3-phosphate dehydrogenase (GAPDH) RNA in the same cell lysate, which served as an internal control to normalize the difference of total RNAs. To calculate the EC50 values of Compound 1 against the resistant cell lines, the relative cycle threshold (CT) for the HCV and GAPDH was determined. […] Identification of the Molecular Target

[5] = system: resistant replicon cell lines (w1, w3 and w4); test: Sensitivity of resistant replicon cell lines, HCV replicon RNA by quantitative RT-PCR; type: cell-based; conditions: for pEC50: Hepatitis C virus, 72 h, HCV replicon RNA by RT-PCR, 72 hours of treatment; for Fold over wild-type: fold of EC50
Experimental: as §1, §2

[6] = target: T2, NS5B polymerase (Hepatitis C virus genotype 1b, UniProt Q9WMX2, C2735Y); test: Identification of the molecular target (sequencing of resistant replicons); parameters: species or system HCV; conditions: eight cDNA clones of three resistant cell lines (w1, w3 and w4)
T2 construct: a single nucleotide change in the region of viral NS5B polymerase; expressed in transfected cells; host or cells: HCV subgenomic replicon cells (parental and Compound 1-resistant lines w1, w3, w4)
Experimental: To determine the targeted viral gene of Compound 1, total RNA was isolated from the resistant cell lines and from the parental replicon cells. The cDNA fragment encoding the HCV nonstructural proteins (NS3-NS5B) was amplified from the total cellular RNA by using a Thermoscript RT-PCR kit (Invitrogen). The cDNA fragments were cloned into pCR4-TOPO vector by using a TOPO TA cloning kit (Invitrogen). The entire DNA sequence of the HCV nonstructural coding region was determined for multiple independent cDNA clones.
Eight different cDNA clones were generated from three independently cell lines selected by Compound 1 (cell lines w1, w3 and w4) and three cDNA clones from the parental cell line.

[7] = read-out: Range of CC50 in cytotoxicity assay, cytotoxicity, class symbols

T1 sequence (Q9WMX2 2420-3010, one chain of several): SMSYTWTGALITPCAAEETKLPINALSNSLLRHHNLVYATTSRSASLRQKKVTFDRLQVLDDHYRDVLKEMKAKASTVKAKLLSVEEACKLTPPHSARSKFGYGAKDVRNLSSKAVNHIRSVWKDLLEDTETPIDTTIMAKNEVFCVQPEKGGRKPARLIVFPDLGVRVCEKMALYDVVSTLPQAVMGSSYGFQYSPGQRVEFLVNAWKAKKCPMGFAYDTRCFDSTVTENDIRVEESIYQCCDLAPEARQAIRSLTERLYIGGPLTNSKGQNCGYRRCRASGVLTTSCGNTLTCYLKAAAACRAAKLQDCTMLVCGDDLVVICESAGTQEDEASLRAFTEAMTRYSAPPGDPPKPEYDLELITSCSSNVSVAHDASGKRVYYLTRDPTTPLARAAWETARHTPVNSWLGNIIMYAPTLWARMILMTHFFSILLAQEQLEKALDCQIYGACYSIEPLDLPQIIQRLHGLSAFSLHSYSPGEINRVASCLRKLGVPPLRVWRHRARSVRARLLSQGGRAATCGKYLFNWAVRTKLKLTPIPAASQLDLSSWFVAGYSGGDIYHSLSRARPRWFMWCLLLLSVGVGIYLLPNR
T2 sequence (Q9WMX2 2420-3010 C2735Y): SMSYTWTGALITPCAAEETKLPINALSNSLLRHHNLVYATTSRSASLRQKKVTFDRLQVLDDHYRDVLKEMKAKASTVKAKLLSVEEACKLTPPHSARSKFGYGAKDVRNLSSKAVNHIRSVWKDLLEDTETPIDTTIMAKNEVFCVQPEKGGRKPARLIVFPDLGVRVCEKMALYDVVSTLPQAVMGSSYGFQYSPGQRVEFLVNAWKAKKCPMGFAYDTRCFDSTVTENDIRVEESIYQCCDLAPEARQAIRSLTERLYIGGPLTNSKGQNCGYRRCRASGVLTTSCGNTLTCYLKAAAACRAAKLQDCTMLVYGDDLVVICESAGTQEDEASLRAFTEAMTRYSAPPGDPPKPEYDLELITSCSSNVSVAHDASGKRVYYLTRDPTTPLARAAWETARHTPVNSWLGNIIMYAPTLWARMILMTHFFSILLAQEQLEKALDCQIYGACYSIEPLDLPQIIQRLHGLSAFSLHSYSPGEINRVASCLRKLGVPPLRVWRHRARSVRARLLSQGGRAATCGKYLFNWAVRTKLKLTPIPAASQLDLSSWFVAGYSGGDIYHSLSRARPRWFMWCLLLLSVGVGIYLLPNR

| Compound | pEC50 [1] | CC50 [2] | CC50 [2, 7] | other results |
| --- | --- | --- | --- | --- |
| N#Cc1c(Nc2ccc(Cc3ccccc3)cc2)s[nH]c1=O | < 4.30 | > 50 µM |  |  |
| N#Cc1c(Nc2ccc(S(=O)(=O)Nc3ccccc3)cc2)s[nH]c1=O | < 4.30 | > 50 µM |  |  |
| Cc1cccc(C)c1Sc1ccc(Nc2s[nH]c(=O)c2C#N)cc1 | 5.00 to 6.00 |  | < 50 µM |  |
| N#Cc1c(NCCc2ccc(O)cc2)s[nH]c1=O | < 4.30 | > 50 µM |  |  |
| N#Cc1c(NCCc2cccs2)s[nH]c1=O | < 4.30 | > 50 µM |  |  |
| N#Cc1c(Nc2cc(F)c(Br)c(F)c2)s[nH]c1=O | > 6.00 |  | > 50 µM |  |
| N#Cc1c(Nc2cc(Cl)c(Cl)c(Cl)c2)s[nH]c1=O | > 6.00 | < 50 µM |  |  |
| N#Cc1c(Nc2ccc(Cl)c(Cl)c2)s[nH]c1=O | > 6.00 | > 50 µM |  |  |
| N#Cc1c(Nc2ccc(Br)c(F)c2)s[nH]c1=O | > 6.00 |  | > 50 µM |  |
| N#Cc1c(Nc2ccc(Br)c(Cl)c2)s[nH]c1=O | > 6.00 | > 50 µM |  |  |
| N#Cc1c(Nc2cc(Br)cc(C(F)(F)F)c2)s[nH]c1=O | > 6.00 |  | > 50 µM |  |
| N#Cc1c(Nc2ccc(Br)cn2)s[nH]c1=O | 4.30 to 5.00 |  | > 50 µM |  |
| N#Cc1c(Nc2ccc(Br)nc2)s[nH]c1=O | 4.30 to 5.00 | > 50 µM |  |  |
| N#Cc1c(Nc2ccc(Cl)cn2)s[nH]c1=O | 4.30 to 5.00 |  | > 50 µM |  |
| N#Cc1c(Nc2ccnc(Cl)c2)s[nH]c1=O | 4.30 to 5.00 | > 50 µM |  |  |
| N#Cc1c(Nc2ccc(Br)c(C(F)(F)F)c2)s[nH]c1=O | 5.00 to 6.00 |  | > 50 µM |  |
| N#Cc1c(Nc2cccc(Br)n2)s[nH]c1=O | 4.30 to 5.00 |  | > 50 µM |  |
| N#Cc1c(Nc2cc(Cl)nc(Cl)c2)s[nH]c1=O | 5.00 to 6.00 |  | < 50 µM |  |
| N#Cc1c(Nc2ccc(C(F)(F)F)cn2)s[nH]c1=O | 4.30 to 5.00 | > 50 µM |  |  |
| N#Cc1c(O)nsc1Nc1cc(Cl)cc(Cl)c1 |  |  |  | pIC50 [3]: > 7.30 |
| N#Cc1c(O)nsc1Nc1ccc(Cl)cc1 |  |  |  | pIC50 [3]: 7.00 to 7.30 |
| N#Cc1c(Nc2ccc(Br)cc2)s[nH]c1=O |  |  |  | pIC50 [3]: > 7.30 |
| N#Cc1c(O)nsc1Nc1cc(C(F)(F)F)cc(C(F)(F)F)c1 |  |  |  | pIC50 [3]: 6.60 to 7.00 |
| C[C@@]1(O)[C@H](O)[C@@H](CO)O[C@H]1n1cnc2c(N)ncnc21 [2′-C-methyl-adenosine] |  |  |  | pEC50 [4]: 6.44; Fold over wild-type [4]: 1; pEC50 ([5]; resistant cell line W1): 6.80; pEC50 ([5]; resistant cell line W3): 6.59; pEC50 ([5]; resistant cell line W4): 6.51; sensitivity of resistant cell lines to inhibition ([5]; cell lines w1, w3, w4 selected with Compound 1): still sensitive to inhibition; Fold over wild-type ([5]; resistant cell line W1): 0.4; Fold over wild-type ([5]; resistant cell line W3): 0.7; Fold over wild-type ([5]; resistant cell line W4): 0.9 |
| N#Cc1c(Nc2cc(Cl)cc(Cl)c2)s[nH]c1=O [Compound 1] |  |  |  | pEC50 [4]: 7.15; Fold over wild-type [4]: 1; pEC50 ([5]; resistant cell line W1): 5.43; pEC50 ([5]; resistant cell line W3): 5.69; pEC50 ([5]; resistant cell line W4): 5.34; Fold over wild-type ([5]; resistant cell line W1): 52; Fold over wild-type ([5]; resistant cell line W3): 29; Fold over wild-type ([5]; resistant cell line W4): 66; mutation present in cDNA clones of cell lines selected by the compound [6]: cysteine at position 316 of NS5B polymerase to a tyrosine residue |
| N#Cc1c(Nc2ccc(Cl)c(C(F)(F)F)c2)s[nH]c1=O [drawing 430] | 5.00 to 6.00 | > 50 µM |  |  |
| N#Cc1c(Nc2ccc(Cl)c(C(F)(F)F)c2)s[nH]c1=O [drawing 483] |  |  |  | pIC50 [3]: 7.00 to 7.30 |
